Data published in patent US8802597B2, “Herbicidal pyrimidines” (E I du Pont de Nemours and Company, priority 2003, dated 2014).

Key:
Format in all cases: in vivo
[1] = system: goosegrass (Eleusine indica); assay: Test C pre/postemergence; settings: for Goosegrass plant response rating: scale 0 to 100 (0 no effect, 100 complete control)
In short: (§1)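 Rating scale 0–100: 0 means no effect, 100 complete control; taken visually 12 to 14 days post-treatment versus controls. Pre- and postemergence greenhouse applications, postemergence at 1- to 4-leaf stage, non-phytotoxic solvent with surfactant as carrier.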

corn (Zea mays) = assay: Test C pre/postemergence; settings: for Corn plant response rating: scale 0 to 100 (0 no effect, 100 complete control)
In short: as §1

soybean (Glycine max) = assay: Test C pre/postemergence; settings: for Soybean plant response rating: scale 0 to 100 (0 no effect, 100 complete control)
In short: as §1

[2] = system: lambsquarters (Chenopodium album); assay: Test C pre/postemergence; settings: for Lambsquarters plant response rating: scale 0 to 100 (0 no effect, 100 complete control)
In short: as §1

[3] = system: chickweed (Stellaria media); assay: Test C postemergence; settings: for Chickweed plant response rating: scale 0 to 100 (0 no effect, 100 complete control); for Plant response rating, Chickweed: scale 0 to 100
In short: as §1

[4] = Preemergence, 16 g ai/ha, scale 0 to 100, 0 no effect, 100 complete control
[5] = Preemergence, 31 g ai/ha, scale 0 to 100, 0 no effect, 100 complete control
[6] = Preemergence, 62 g ai/ha, scale 0 to 100, 0 no effect, 100 complete control
[7] = Preemergence, 125 g ai/ha, scale 0 to 100
[8] = Postemergence, 250 g ai/ha, scale 0 to 100
[9] = Preemergence, 250 g ai/ha, scale 0 to 100

| SMILES | Plant response rating (scale of 0 to 100), Goosegrass ([1]; Postemergence, 31 g ai/ha) | Goosegrass plant response rating ([1]; Postemergence, 62 g ai/ha) | Goosegrass plant response rating ([1]; Postemergence, 125 g ai/ha) | Plant response rating, Goosegrass [1, 5] | Plant response rating, Goosegrass [1, 6] | Plant response rating, Goosegrass [1, 7] | Plant response rating (scale of 0 to 100), Corn (corn (Zea mays); Postemergence, 31 g ai/ha) | Corn plant response rating (corn (Zea mays); Postemergence, 62 g ai/ha) | Corn plant response rating (corn (Zea mays); Postemergence, 125 g ai/ha) | Plant response rating, Corn (corn (Zea mays); [5]) | Plant response rating, Corn (corn (Zea mays); [6]) | Plant response rating, Corn (corn (Zea mays); [7]) | Plant response rating (scale of 0 to 100), Soybean (soybean (Glycine max); Postemergence, 31 g ai/ha) | Soybean plant response rating (soybean (Glycine max); Postemergence, 62 g ai/ha) | Soybean plant response rating (soybean (Glycine max); Postemergence, 125 g ai/ha) | Plant response rating, Soybean (soybean (Glycine max); [5]) | Plant response rating, Soybean (soybean (Glycine max); [6]) | Plant response rating, Soybean (soybean (Glycine max); [7]) | Plant response rating (scale of 0 to 100), Lambsquarters ([2]; Postemergence, 31 g ai/ha) | Lambsquarters plant response rating ([2]; Postemergence, 62 g ai/ha) | other results |
| --- | --- | --- | --- | --- | --- | --- | --- | --- | --- | --- | --- | --- | --- | --- | --- | --- | --- | --- | --- | --- | --- |
| COC(=O)c1nc(C2CC2)nc(N=CN(C)C)c1Br [Compound 19] | 0 | 0 | 0 | 0 | 0 | 0 | 0 | 0 | 35 | 0 | 0 | 0 | 55 | 75 | 75 | 25 | 85 | 90 | 90 | 90 | Plant response rating (scale of 0 to 100), Goosegrass ([1]; Postemergence, 16 g ai/ha): 0; Plant response rating, Goosegrass [1, 4]: 0; Plant response rating (scale of 0 to 100), Corn (corn (Zea mays); Postemergence, 16 g ai/ha): 0; Plant response rating, Corn (corn (Zea mays); [4]): 0; Plant response rating (scale of 0 to 100), Soybean (soybean (Glycine max); Postemergence, 16 g ai/ha): 45; Plant response rating, Soybean (soybean (Glycine max); [4]): 0; Plant response rating (scale of 0 to 100), Lambsquarters ([2]; Postemergence, 16 g ai/ha): 70; Lambsquarters plant response rating ([2]; Postemergence, 125 g ai/ha): 95; Plant response rating, Lambsquarters [2, 4]: 75; Plant response rating, Lambsquarters [2, 5]: 100; Plant response rating, Lambsquarters [2, 6]: 100; Plant response rating, Lambsquarters [2, 7]: 100; Plant response rating (scale of 0 to 100), Chickweed ([3]; 16 g ai/ha): 0; Plant response rating (scale of 0 to 100), Chickweed ([3]; 31 g ai/ha): 0; Chickweed plant response rating ([3]; 62 g ai/ha): 5; Plant response rating, Chickweed ([3]; 125 g ai/ha): 5 |
| CCOC(=O)C(OC(C)=O)c1nc(C2CC2)nc(N)c1Br (centres unmarked) [Compound 47] | 0 | 0 | 0 | 45 | 85 | 90 | 0 | 0 | 0 | 0 | 0 | 0 | 40 | 65 | 75 | 0 | 0 | 0 | 45 | 70 | Plant response rating (scale of 0 to 100), Goosegrass ([1]; Postemergence, 16 g ai/ha): 0; Plant response rating, Goosegrass [1, 4]: 0; Plant response rating (scale of 0 to 100), Corn (corn (Zea mays); Postemergence, 16 g ai/ha): 0; Plant response rating, Corn (corn (Zea mays); [4]): 0; Plant response rating (scale of 0 to 100), Soybean (soybean (Glycine max); Postemergence, 16 g ai/ha): 20; Plant response rating, Soybean (soybean (Glycine max); [4]): 0; Plant response rating (scale of 0 to 100), Lambsquarters ([2]; Postemergence, 16 g ai/ha): 0; Lambsquarters plant response rating ([2]; Postemergence, 125 g ai/ha): 80; Plant response rating, Lambsquarters [2, 4]: 0; Plant response rating, Lambsquarters [2, 6]: 85; Plant response rating, Lambsquarters [2, 7]: 95; Plant response rating (scale of 0 to 100), Chickweed ([3]; 16 g ai/ha): 0; Plant response rating (scale of 0 to 100), Chickweed ([3]; 31 g ai/ha): 0; Chickweed plant response rating ([3]; 62 g ai/ha): 0; Chickweed plant response rating ([3]; 125 g ai/ha): 0 |
| CC(C)COC(=O)c1nc(C2CC2)nc(N)c1Br [Compound 17] | 0 | 0 | 0 | 0 | 0 | 0 | 0 | 0 | 0 | 0 | 20 | 35 | 85 | 95 | 100 | 70 | 90 | 95 | 95 | 100 | Plant response rating, Goosegrass [1, 8]: 0; Plant response rating, Goosegrass [1, 9]: 0; Plant response rating, Corn (corn (Zea mays); [8]): 20; Plant response rating, Corn (corn (Zea mays); [9]): 75; Plant response rating, Soybean (soybean (Glycine max); [8]): 100; Plant response rating, Soybean (soybean (Glycine max); [9]): 100; Lambsquarters plant response rating ([2]; Postemergence, 125 g ai/ha): 100; Plant response rating, Lambsquarters [2, 8]: 100; Plant response rating, Lambsquarters [2, 5]: 95; Plant response rating, Lambsquarters [2, 6]: 95; Plant response rating, Lambsquarters [2, 7]: 100; Plant response rating, Lambsquarters [2, 9]: 100; Plant response rating (scale of 0 to 100), Chickweed ([3]; 31 g ai/ha): 0; Chickweed plant response rating ([3]; 62 g ai/ha): 0; Plant response rating, Chickweed ([3]; 125 g ai/ha): 55; Plant response rating, Chickweed ([3]; 250 g ai/ha): 85 |
